Experiments:
Assay type in all cases: functional
Cavia porcellus [1] = species: Cavia porcellus; assay: Maximum relaxation achieved compared to maximum relaxation to aminophylline (mM) in guinea pig trachaelis
Rattus norvegicus [2] = species: Rattus norvegicus; assay: Maximum reduction of 30 mM KCl- induced contraction in rat aorta
Rattus norvegicus [3] = species: Rattus norvegicus; assay: […] activity in rat aorta precontracted with 30 mM KCl
Cavia porcellus [4] = species: Cavia porcellus; assay: Inhibition of spontaneous tone in guinea pig trachaelis

SMILES	EC50 (Rattus norvegicus [3]) [nM]	EC50 (Cavia porcellus [4]) [nM]	Intrinsic activity (Cavia porcellus [1]) [%]	Intrinsic activity (Rattus norvegicus [2]) [%]
CN(C)/C(=N\S(N)(=O)=O)C1=CC(C)(C)Oc2ccc([N+](=O)[O-])cc21	> 31600	> 31600		
CN(C)C(=O)C1=CC(C)(C)Oc2ccc([N+](=O)[O-])cc21	129	398	78.3	79.9
CN(C)/C(=N\C(N)=O)C1=CC(C)(C)Oc2ccc([N+](=O)[O-])cc21	> 31600	> 31600		
CC1(C)Oc2ccc(C#N)cc2[C@@H](N2CCCC2=O)[C@H]1O [CROMAKALIM]		851	85.1	74.7
CNC(=O)C1=CC(C)(C)Oc2ccc([N+](=O)[O-])cc21	10.7	33.1	89.6	61
CN(C)C(=S)C1=CC(C)(C)Oc2ccc([N+](=O)[O-])cc21	955	490	77.4	71.5
CN(C)/C(=N\C#N)C1=CC(C)(C)Oc2ccc(S(=O)(=O)c3ccccc3)cc21	3310	3630	91.1	73.8
CN(C)/C(=C\[N+](=O)[O-])C1=CC(C)(C)Oc2ccc([N+](=O)[O-])cc21	6460	1120	84.8	83.1
CN(C)/C(=N\C#N)C1=CC(C)(C)Oc2ccc([N+](=O)[O-])cc21	> 31600	51.3	90.6	

Continued, in another order:

EC50 (Rattus norvegicus [3]) [nM]	EC50 (Cavia porcellus [4]) [nM]	SMILES	Intrinsic activity (Cavia porcellus [1]) [%]	Intrinsic activity (Rattus norvegicus [2]) [%]
5010	2140	CN(C)/C(=N\C#N)C1=CC(C)(C)Oc2ccc(C#N)cc21	85.6	73.7
12600	178	CN(C)/C(=N\C#N)C1=CC(C)(C)Oc2ccc(C(F)(F)F)cc21	74.1	75.2
	1580	CC(N/C(=N\C#N)Nc1ccncc1)C(C)(C)C (centres undefined) [PINACIDIL ANHYDROUS]	97.3	91.9
> 31600	> 31600	CN(C)/C(=N\C#N)C1=CC(C)(C)Oc2ccc(Br)cc21		
> 31600	> 31600	CN(C)/C(=N\C#N)C1=CC(C)(C)Oc2ccccc21		
> 10000	407	CN(C)/C(=N/C#N)C1=CC(C)(C)Oc2ccc(OC(F)(F)F)cc21	56.1	
> 31600	> 31600	COc1ccc2c(c1)C(/C(=N/C#N)N(C)C)=CC(C)(C)O2		
> 31600	> 31600	CN(C)/C(=N\C#N)C1=CC(C)(C)Oc2ccc(Cl)cc21		
> 31600	> 31600	CN(C)/C(=N\C#N)C1=CC(C)(C)Oc2ccc(S(C)(=O)=O)cc21		

From ChEMBL document CHEMBL1127953, “Substituent effects of benzopyran-4-(N-cyano)-carboxamidine potassium channel openers for selectivity to guinea pig trachealis” (Bioorg Med Chem Lett, 1994)
